The source of these data is patent publication US9284350B2, “IAP BIR domain binding compounds” (Pharmascience Inc., priority 2010, dated 2016).

The target of one assay is T1, c-IAP1 (Homo sapiens, UniProt Q13490).
T1 construct: GST (N); made in house; host or cells: E. coli DH5α
As to the kind of experiment: Fluorescence polarization-based competition assay, c-IAP1. As to conditions: FP assay, ki derived from IC50. The assay is classed as binding. The gist of the method: (§1)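 Competition of FITC-labelled probe (2 nM) binding to the BIR domain, protein set at 80% of maximal FP signal; 10-point compound dilutions in 50 mM HEPES pH 7.5, γ-globulin, 2 mM DTT, 1% DMSO, 1 h at room temperature in the dark. IC50 from sigmoidal fit; Ki derived from IC50.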
In general terms: Fluorescence polarisation rises when a labelled molecule tumbles more slowly, as on binding a larger partner.

Another assay concerns the target T2, XIAP (Homo sapiens, UniProt P98170).
T2 construct: fused on or other part: GST tag at the N-terminus (pGEX4T vectors)
The assay can be described thus: Fluorescence polarization-based competition assay, XIAP. The assay is classed as binding. As to conditions: FP assay, ki derived from IC50. An outline of the steps:
as §1

Assay [1] relates to Colorectal carcinoma HCT116 cells. The assay can be described thus: Cell death assay (MTT) in combination with HGS ETR1. The assay is classed as cell-based. As to conditions: with HGS ETR1 30 ng/ml, 72 hours, read-out: HCT116+ mapatubimap EC50. The gist of the method: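 HCT116 cells (2000/well, McCoy's 5a, 10% FBS) were treated 24 h after plating with compound plus the agonistic TRAIL receptor antibody mapatumumab (ETR1, 30 ng/ml) for 72 hours. Viability was read by MTT. EC50 was the concentration giving 50% survival relative to untreated controls.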

Another assay concerns the target T3, cIAP2 (Homo sapiens, UniProt Q13489).
T3 construct: GST (N); made in house; host or cells: E. coli DH5α
The assay can be described thus: Fluorescence polarization-based competition assay, cIAP2. The assay is classed as binding. The settings on record: FP assay, ki derived from IC50. The gist of the method: as §1

A further assay has as its system MDA-MB-231 (CD) cells. As to the kind of experiment: MDA-MB-231 compound + mapatubamab xenograft study. The format is in vivo, nude mice. The settings on record: 30 and 60 mg/kg, PO, QD in combination with mapatubamab (10 mg/kg, IV). How it is done: Female, nude mice received 5×10^6 MDA-MB-231 (CD) cells subcutaneously in the right flank (0.1 mL volume) on day 0 of the experiment. When the average tumor size reached ˜100 mm^3, groups were formed using a balanced design based on tumor size, and dosing was initiated. Test compound 10 or 7 (see Table 1) (or corresponding vehicle alone) was given daily, and mapatubamab (or corresponding vehicle alone) was given twice weekly. Tumor size and body weight were measured twice weekly throughout the study.

Where only a bound is given, the exact number is not on record here.

What is called Ki is a dissociation constant, usually derived from enzyme kinetics or from competition with a known ligand. Low values mean a stronger hold on the target, high ones a looser hold on the target. A word on the EC50: it is the concentration at which the effect is half-maximal.

T2 sequence (P98170 246-497 limits assumed): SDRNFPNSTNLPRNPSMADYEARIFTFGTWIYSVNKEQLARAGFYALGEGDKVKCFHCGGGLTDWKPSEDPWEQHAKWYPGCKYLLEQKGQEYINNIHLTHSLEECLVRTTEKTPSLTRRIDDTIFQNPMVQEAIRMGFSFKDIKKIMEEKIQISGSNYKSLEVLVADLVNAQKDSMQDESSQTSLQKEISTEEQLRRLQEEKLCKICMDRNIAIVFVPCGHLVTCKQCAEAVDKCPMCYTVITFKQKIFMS
T1 sequence (Q13490 251-363): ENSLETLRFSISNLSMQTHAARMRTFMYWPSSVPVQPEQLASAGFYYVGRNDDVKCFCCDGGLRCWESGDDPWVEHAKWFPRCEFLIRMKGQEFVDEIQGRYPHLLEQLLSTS
T3 sequence (Q13489 236-349): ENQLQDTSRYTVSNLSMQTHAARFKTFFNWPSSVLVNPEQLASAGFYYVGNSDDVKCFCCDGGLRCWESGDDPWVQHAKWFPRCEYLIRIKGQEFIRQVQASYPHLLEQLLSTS

As for `CN[C@@H](C)C(=O)N[C@H](C(=O)N1CCC[C@H]1CN(CCc1ccc(F)cc1)C(=O)c1cnn(-c2ccccc2)c1)C(C)(C)C` [Compound 90], the values for the Ki on c-IAP1, on XIAP and on cIAP2 were under 0.025 µM, under 0.25 µM and under 0.025 µM, respectively. The EC50 in assay [1] was under 0.25 µM.

`CN[C@@H](C)C(=O)N[C@H](C(=O)N1C[C@@H](NC(=O)c2ccccc2)C[C@H]1CN(CCc1ccc(F)cc1)C(=O)c1cn2c(n1)CCC2)C(C)(C)C` [Compound 89]: the figures for the inhibitory constant (Ki) on c-IAP1, at XIAP and at cIAP2 were under 0.025 µM, under 0.25 µM and under 0.025 µM, respectively. In addition, the EC50 in assay [1] is under 0.05 µM.

For the molecule `CN[C@@H](C)C(=O)N[C@H](C(=O)N1CCC[C@H]1CN(CCc1ccc(F)cc1)C(=O)c1cn2cccnc2n1)[C@@H](C)OC` [Compound 36], the Ki on c-IAP1 is under 0.025 µM; on XIAP it was under 0.25 µM; at cIAP2, under 0.025 µM. In addition, the EC50 in assay [1] is under 0.25 µM.

`CCO[C@H](C)[C@H](NC(=O)[C@H](C)NC)C(=O)N1CCC[C@H]1CN(CCc1ccc(F)cc1)C(=O)c1cn(C)cn1` [Compound 76]: the figures for the Ki at c-IAP1, on XIAP and at cIAP2 were under 0.025 µM, under 0.25 µM and under 0.025 µM, respectively. For the same molecule, in assay [1], the EC50 was under 0.05 µM.

As for `CN[C@@H](C)C(=O)N[C@H](C(=O)N1CCC[C@H]1CN(CCc1ccc(F)cc1)C(=O)c1cn(-c2ccccc2)cn1)C(C)(C)C` [Compound 61], the figures for the Ki on c-IAP1, at XIAP and on cIAP2 were under 0.025 µM, under 0.25 µM and under 0.025 µM, respectively. The EC50 in assay [1] was under 0.25 µM.

In the case of `CN[C@@H](C)C(=O)N[C@H](C(=O)N1CCC[C@H]1CN(CCc1ccc(F)cc1)C(=O)c1cn(-c2ccc(F)cc2)cn1)[C@@H](C)OC` [Compound 72], the Ki is under 0.025 µM on c-IAP1, under 0.25 µM at XIAP and under 0.025 µM on cIAP2. In addition, in assay [1], the EC50 is under 0.05 µM.

On to `CN[C@@H](C)C(=O)N[C@H](C(=O)N1C[C@@H](NC(=O)c2ccccc2)C[C@H]1CN(CCc1ccc(F)cc1)C(=O)c1cn2ccccc2n1)C(C)(C)C` [Compound 69], for which the inhibitory constant (Ki) at c-IAP1 is under 0.025 µM; on XIAP it was under 0.25 µM; at cIAP2 it was under 0.025 µM. The EC50 in assay [1] was under 0.25 µM.

Take `CCN[C@@H](C)C(=O)N[C@H](C(=O)N1CCC[C@H]1CN(CCc1ccccc1)C(=O)c1cn2cccnc2n1)C(C)(C)C` [Compound 14]: the Ki at c-IAP1 was under 0.025 µM; at XIAP it was under 1 µM; at cIAP2, under 0.25 µM. The EC50 in assay [1] is under 0.25 µM.

With `CN[C@@H](C)C(=O)N[C@H](C(=O)N1C[C@@H](Oc2ccc(OC(F)(F)F)cc2)C[C@H]1CN(CCc1ccc(F)cc1)C(=O)c1cn(C)cn1)C(C)(C)C` [Compound 97], the figures for the Ki on c-IAP1, at XIAP and at cIAP2 were under 0.025 µM, under 0.25 µM and under 0.025 µM, respectively. The EC50 in assay [1] was under 0.05 µM.

With `CN[C@@H](C)C(=O)N[C@H](C(=O)N1CCC[C@H]1CN(CCc1ccc(F)cc1)C(=O)c1cn2cc(F)cnc2n1)C1CCCCC1` [Compound 103], the Ki at c-IAP1 was under 0.025 µM; on XIAP it was under 0.25 µM; on cIAP2, under 0.025 µM. For the same molecule, the EC50 in assay [1] was under 0.05 µM.

Regarding `CN[C@@H](C)C(=O)N[C@H](C(=O)N1CCC[C@H]1CN(CCc1ccc(F)cc1)C(=O)c1cncn1C)C(C)(C)C` [Compound 92], the Ki was under 0.025 µM at c-IAP1, under 1 µM at XIAP and under 0.25 µM at cIAP2. In addition, the EC50 in assay [1] was under 0.25 µM.

With `CN[C@@H](C)C(=O)N[C@H](C(=O)N1CCC[C@H]1CN(CCc1ccc(F)cc1)C(=O)c1ncc(-c2ccccc2)[nH]1)C(C)(C)C` [Compound 109], the values for the inhibition constant Ki at c-IAP1, on XIAP and at cIAP2 were under 0.025 µM, under 0.25 µM and under 0.025 µM, respectively. For the same molecule, the EC50 in assay [1] was under 0.05 µM.

For `CN[C@@H](C)C(=O)N[C@H](C(=O)N1C[C@@H](Oc2ccc(F)cc2)C[C@H]1CN(CCc1ccc(F)cc1)C(=O)c1cn2cccnc2n1)[C@@H](C)OC` [Compound 100], the Ki was under 0.025 µM on c-IAP1, under 0.25 µM at XIAP and under 0.025 µM at cIAP2. Moreover, the EC50 in assay [1] is under 0.25 µM.

For `CN[C@@H](C)C(=O)N[C@H](C(=O)N1CCC[C@H]1CN(CCc1ccccc1)C(=O)c1cn2ccccc2n1)C(C)(C)C` [Compound 7], the Ki at c-IAP1 is under 0.025 µM; at XIAP it was under 0.25 µM; on cIAP2 it was under 0.025 µM. In assay [1], the concentration for a half-maximal effect (EC50) was under 0.25 µM. For the same molecule, in the assay with MDA-MB-231 (CD) cells, the “reduction of tumor volume as compared to control” value is on record as 50%.

`CN[C@@H](C)C(=O)N[C@H](C(=O)N1C[C@@H](Oc2ccc(F)cc2)C[C@H]1CN(CCc1ccc(F)cc1)C(=O)c1cn2cccnc2n1)C(C)(C)C` [Compound 65]: the Ki at c-IAP1, at XIAP and at cIAP2 was under 0.025 µM throughout. For the same molecule, the EC50 in assay [1] is under 0.05 µM.

For `CN[C@@H](C)C(=O)N[C@H](C(=O)N1C[C@@H](Oc2ccc(F)cc2)C[C@H]1CN(CCc1ccc(F)cc1)C(=O)c1cn(C)cn1)C(C)(C)C` [Compound 82], the Ki at c-IAP1, at XIAP and at cIAP2 was under 0.025 µM in each case. Further, in assay [1], the 50% effective concentration (EC50) was under 0.05 µM.

For the molecule `CN[C@@H](C)C(=O)N[C@H](C(=O)N1CCC[C@H]1CN(CCc1ccc(F)cc1)C(=O)c1cc(C)on1)C(C)(C)C` [Compound 98], the Ki on c-IAP1 is under 0.025 µM; at XIAP, under 0.25 µM; at cIAP2, under 0.025 µM. The EC50 in assay [1] was under 0.25 µM.

As to `CN[C@@H](C)C(=O)N[C@H](C(=O)N1C[C@@H](Oc2ccc(F)cc2)C[C@H]1CN(CCc1ccc(F)cc1)C(=O)c1cn(-c2ccc(F)cc2)cn1)[C@@H](C)OC` [Compound 108], the Ki was under 0.025 µM at c-IAP1, under 0.25 µM at XIAP and under 0.025 µM at cIAP2. In addition, in assay [1], the EC50 is under 0.25 µM.

In the case of `CN[C@@H](C)C(=O)N[C@H](C(=O)N1C[C@@H](NC(=O)c2ccccc2)C[C@H]1CN(CCc1ccc(F)cc1)C(=O)c1cn(-c2ccc(F)cc2)cn1)C(C)(C)C` [Compound 87], the figures for the Ki at c-IAP1, on XIAP and at cIAP2 were under 0.025 µM, under 0.25 µM and under 0.025 µM, respectively. In addition, in assay [1], the EC50 is under 0.25 µM.

`CN[C@@H](C)C(=O)N[C@H](C(=O)N1C[C@@H](Oc2ccc(F)cc2)C[C@H]1CN(CCc1ccc(F)cc1)C(=O)c1cn2c(n1)CCC2)[C@@H](C)OC` [Compound 114]: the inhibition constant (Ki) at c-IAP1, on XIAP and on cIAP2 was under 0.025 µM each time. Also, in assay [1], the EC50 was under 0.05 µM.

On to `CN[C@@H](C)C(=O)N[C@H](C(=O)N1CCC[C@H]1CN(CCc1ccc(F)cc1)C(=O)c1cn2cccnc2n1)C(C)(C)C` [Compound 10], for which the Ki on c-IAP1 is under 0.025 µM; at XIAP, under 0.25 µM; on cIAP2 it was under 0.025 µM. In assay [1], the concentration giving a half-maximal response (EC50) was under 0.05 µM. Further, in the assay on MDA-MB-231 (CD) cells, the “reduction of tumor volume as compared to control” value is 50%.

For `CN[C@@H](C)C(=O)N[C@H](C(=O)N1C[C@@H](NC(=O)c2ccccc2)C[C@H]1CN(CCc1ccc(F)cc1)C(=O)c1cn2cc(F)cnc2n1)C(C)(C)C` [Compound 112], the values for the Ki on c-IAP1, on XIAP and on cIAP2 were under 0.025 µM, under 0.25 µM and under 0.025 µM, respectively. Moreover, the EC50 in assay [1] was under 0.25 µM.

With `CN[C@@H](C)C(=O)N[C@H](C(=O)N1C[C@@H](NC(=O)Cc2ccccc2)C[C@H]1CN(CCc1ccc(F)cc1)C(=O)c1cn2cccnc2n1)C(C)(C)C` [Compound 56], the Ki at c-IAP1 was under 0.025 µM; on XIAP, under 1 µM; at cIAP2 it was under 0.025 µM. In addition, in assay [1], the EC50 was under 1 µM.

On to `CN[C@@H](C)C(=O)N[C@H](C(=O)N1C[C@@H](Oc2ccc(F)cc2)C[C@H]1CN(CCc1ccc(F)cc1)C(=O)c1cn2ccccc2n1)C(C)(C)C` [Compound 84], for which the Ki on c-IAP1, on XIAP and on cIAP2 was under 0.025 µM throughout. For the same molecule, in assay [1], the EC50 is under 0.05 µM.

Regarding `CN[C@@H](C)C(=O)N[C@H](C(=O)N1CCC[C@H]1CN(CCc1ccc(F)cc1)C(=O)c1nccn1C)[C@@H](C)OC` [Compound 85], the results for the Ki on c-IAP1, on XIAP and on cIAP2 were under 0.025 µM, under 1 µM and under 0.025 µM, respectively. The EC50 in assay [1] was under 0.05 µM.

As to `CN[C@@H](C)C(=O)N[C@H](C(=O)N1CCC[C@H]1CN(CCc1ccc(F)cc1)C(=O)c1cn2ccccc2n1)C(C)(C)C` [Compound 17], the Ki on c-IAP1 is under 0.025 µM; at XIAP, under 0.25 µM; on cIAP2, under 0.025 µM. For the same molecule, the EC50 in assay [1] is under 0.05 µM.
